In the assay the test system is dendritic cells in tumor draining lymph nodes. Nature of the assay: Maturation of dendritic cells in tumor draining lymph nodes of mice (Example 5). The class given is in vivo, mouse. The settings on record: 24 hour after intratumoral injection, 10 μg MPLA. The method, then:
Immunocompetent mice were injected with Yale University Mouse Melanoma Exposed to Radiation 1.7 (YUMMER1.7) cells for in vivo modeling of immunogenic, cutaneous melanoma. 300,000 cells of YUMMER 1.7 melanoma cells in 50 μL of sterile PBS were intradermally injected into the left flank of syngeneic C57Bl/6 mice.
The mice were watched for tumor growth for eight days until the mice were randomly divided into groups (n=10) based on tumor sizes between 40-90 mm^3. The mice received vehicle (10 μl distilled water), free MPLA (10 μg), NNP-MPLA (10 μg of active MPLA), and BNP-MPLA (10 μg of active MPLA) intratumorally. The mice were sacrificed either at 24 hours or 72 hours after the single intratumoral injection. The tumor draining lymph nodes, both axillary and inguinal, were collected from each mouse. A petri dish was used to collect the lymph nodes, and the frosted ends of microscope slides were used to gently release immune cells from the lymph nodes into fresh CRPMI and placed on ice until resuspension. […]
After lymph node single cell collection, the cells were rinsed with sterile PBS and plated into a 96 round-bottom well plate at a concentration density of 1-2×10^6 cells per well then rinsed again with PBS. […] The stained cells were then detected by flow cytometer (Cytoflex, Beckman Coulter). […]

From patent US20230355801A1, “IMMUNOTHERAPY OF SKIN CANCER USING MPLA-LOADED HPG NANOPARTICLES” (Yale University, priority 2022, published 2023) come the findings set out here.

Take monophosphoryl lipid A [free MPLA]: the “dendritic cell maturation (CD80+CD86+ in CD11c+ cells) in TDLN” value is recorded as “significant increase”.
